From ChEMBL document CHEMBL1201862, “PubChem BioAssay data set” (2004)
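Step 1: Grow cells in 96-well plates. Step 2: Expose to compound for 48 hours at 5 concentrations. Step 3: Interpolate endpoints linearly; if unreached, use highest concentration. GI50 marks 50% less growth.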 Active and inactive are the calls of the source. Rule as the data show it: active = GI50 up to about 1.1 µM and inactive = higher.

How the values were obtained:
Test in all cases: DTP human tumour cell line panel, 48 h
[1] = test system: M14
[2] = test system: UACC-257
[3] = test system: EKVX
[4] = test system: KM12
[5] = test system: K562
[6] = test system: SR
[7] = test system: SF-295
[8] = test system: CCRF-CEM
[9] = test system: HL-60
[10] = test system: TK-10
[11] = test system: HT-29
[12] = test system: NCI-H23
[13] = test system: LXFL 529
[14] = test system: NCI-H460
[15] = test system: KM-20L2
[16] = test system: RXF 393
[17] = test system: M19-MEL
[18] = test system: SNB-19
[19] = test system: SF-268
[20] = test system: A549

Measured: GI50

COC(=O)C1=C(C)N2CCCOC2(C)C(C(=O)OC)C1c1cccc(Cl)c1 (stereo not given)
inactive: [1] 20 µM | [2] 19.7 µM | [3] 14 µM | [4] 17.9 µM | [5] 27.2 µM | [6] > 10 µM | [7] 21.7 µM | [8] 27.7 µM | [9] 16.4 µM | [10] 53 µM | [11] 22.2 µM | [12] 31.8 µM | [13] 20 µM | [14] 20.5 µM | [15] 24.4 µM | [16] 33.1 µM | [17] 20.6 µM | [18] 42.3 µM | [19] 32.8 µM | [20] > 100 µM
